According to patent US8759099B2, “Pancreatic islet separation method, and protective solution for protecting pancreatic islet tissue” (Otsuka Pharmaceutical Factory, Inc., priority 2010, dated 2014):

Tested on: mouse islets
Assay: LDH leakage cytotoxicity of mouse islets cultured in the presence of neutrophil elastase
Format: cell-based
Conditions: FIG. 3
Protocol: The concentration of the neutrophil elastase inhibitor used in the isolation method of the present invention was examined as follows using the extracellular leakage of LDH (lactate dehydrogenase) (indicator for cytotoxicity) as an indicator.
First, mouse islets were cultured in the presence of neutrophil elastase at a concentration of 0.31 to 10 μg/mL and the supernatant was collected after a lapse of a certain time. Subsequently, the remaining mouse islets were homogenized and the islet suspension was collected. LDH contained in the collected supernatant and the islet suspension was measured by using a LDH assay kit to measure absorbance at 562 nm. The optimal concentration of the neutrophil elastase inhibitor was examined by adding 2 to 200 μM of the neutrophil elastase inhibitor, sivelestat, in culturing mouse islets in the presence of various concentrations of neutrophil elastase, and similarly measuring the amount of LDH. The cytotoxicity was expressed as the percentage (%) of the amount of LDH contained in the supernatant in the sum of the amount of LDH contained in the supernatant and the amount of LDH contained in the islet suspension.

CC(C)(C)C(=O)Oc1ccc(S(=O)(=O)Nc2ccccc2C(=O)NCC(=O)O)cc1 [sivelestat]
optimal concentration of the neutrophil elastase inhibitor (from suppression of LDH leakage among 2, 20, 200 μM): 20 µM | damage of islet cells (cytotoxicity, LDH in supernatant as % of total LDH) (mouse islets with neutrophil elastase 0.31 to 10 μg/mL, 2, 20 or 200 μM sivelestat compared, result at 20 μM): most suppressed
